Test results as given in PubChem BioAssay (NCI).
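Exposure lasted 48 hours, with cells grown in 96-well plates and compounds tested at five concentrations. GI50 marks 50% less growth. The concentration for full growth arrest is given as TGI.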

The compounds below were run on NCI-H226 lung (assay: NCI-60 cell line screen, 48 h).

Row | SMILES | GI50 [µM] | TGI [µM]
1 | COc1ccc(/C=c2/sc3n(c2=O)C(c2ccc(OC)c(OC)c2)C2=C(N=3)c3cc(F)ccc3OC2)cc1 (stereo not given) | 9.17 | > 60.2
2 | Cc1n(Cc2ccc3ccccc3c2)cc[n+]1Cc1ccc2ccccc2c1 | 1.85 | 10.4
3 | O=C(O)c1ccccc1-c1ccccc1C(=O)Nc1ccc2c(c1)Cc1cc(F)ccc1-2 | – | > 100
4 | Cc1cc(NC(=O)c2ccc(C)c(Nc3nccc(-c4cccnc4)n3)c2)cc(-n2cnc(C)c2)c1 | 1.68 | 5.39
5 | O=C(O)c1c(-c2nccc3ccccc23)[nH]c(-c2ccccc2)c1S(=O)(=O)O | – | > 100
6 | Cc1[nH]n(-c2cccc(Cl)c2)c(=O)c1/C=C1\C=Nc2ccc(Br)cc21 | 5.81 | 28.5
7 | CC(=O)c1c(CBr)n([O-])c2ccccc2[n+]1=O | 13.4 | 28
8 | COc1ccc(C2C(C#N)=C(N)OC3=C2COc2ccc(F)cc23)cc1OC (stereo not given) | 13.9 | 51.1
9 | CCCS(=O)(=O)Nc1ccc(Nc2c3ccccc3nc3ccccc23)c(OC)c1 | – | 13
10 | CCN(CC)CCNCC(=O)Oc1ccc(/C=C/C(=O)CC(=O)/C=C/c2ccc(OC(=O)CNCCN(CC)CC)c(OC)c2)cc1OC | 6.97 | 22.1
11 | Cc1ccc(Nc2nc(N)c(C(=O)c3ccc(C#N)cc3)s2)cc1 | 1.6 | > 93.5
12 | CN(C)Cc1c[nH]c2c1C(=O)c1c(c(O)c3ccccc3c1O)C2=O | 17 | 33.3
13 | CC(=O)O[C@@H]1C[C@]2(C(C)C)O[C@@]1(C)[C@@H]1CCC(C)=C1[C@@H]2OC(=O)/C=C/c1ccccc1 | 29.1 | > 100
14 | NC(N)=N/N=C/c1cc(Cl)cc(Cl)c1O | – | > 100
15 | O=C1c2ccn(CCCCNC(CO)(CO)CO)c2C(=O)c2c1c(O)c1ccccc1c2O | 2.81 | 9.35
16 | c1ccc2c3ccn4cc5c(cc4c-3nc2c1)CCCC5 | 3.3 | 10.2
17 | CCN1C(=O)N(CC)C2C1NC(=S)N2/N=C/C=C/c1cccs1 (stereo not given) | 2.06 | > 28.3
18 | COc1ccc(-c2cc(-c3cccn3C)c(C#N)c(N)n2)cc1OC | > 100 | > 100

The compounds below were run on SNB-19 CNS (assay: NCI-60 cell line screen, 48 h).

Row | SMILES | GI50 [µM] | TGI [µM]
19 | COc1ccc(/C=c2/sc3n(c2=O)C(c2ccc(OC)c(OC)c2)C2=C(N=3)c3cc(F)ccc3OC2)cc1 (stereo not given) | > 53.2 | > 100
20 | Cc1n(Cc2ccc3ccccc3c2)cc[n+]1Cc1ccc2ccccc2c1 | 0.676 | 3.13
21 | O=C(O)c1ccccc1-c1ccccc1C(=O)Nc1ccc2c(c1)Cc1cc(F)ccc1-2 | – | > 100
22 | Cc1cc(NC(=O)c2ccc(C)c(Nc3nccc(-c4cccnc4)n3)c2)cc(-n2cnc(C)c2)c1 | 5.28 | 18.1
23 | O=C(O)c1c(-c2nccc3ccccc23)[nH]c(-c2ccccc2)c1S(=O)(=O)O | – | > 100
24 | Cc1[nH]n(-c2cccc(Cl)c2)c(=O)c1/C=C1\C=Nc2ccc(Br)cc21 | 5.79 | 25.7
25 | CC(=O)c1c(CBr)n([O-])c2ccccc2[n+]1=O | 18.8 | 40
26 | COc1ccc(C2C(C#N)=C(N)OC3=C2COc2ccc(F)cc23)cc1OC (stereo not given) | 73.8 | > 100
27 | CCCS(=O)(=O)Nc1ccc(Nc2c3ccccc3nc3ccccc23)c(OC)c1 | – | 8.98
28 | CCN(CC)CCNCC(=O)Oc1ccc(/C=C/C(=O)CC(=O)/C=C/c2ccc(OC(=O)CNCCN(CC)CC)c(OC)c2)cc1OC | 4.94 | 20.2
29 | Cc1ccc(Nc2nc(N)c(C(=O)c3ccc(C#N)cc3)s2)cc1 | 0.509 | 53.5
30 | CN(C)Cc1c[nH]c2c1C(=O)c1c(c(O)c3ccccc3c1O)C2=O | 8.94 | 43.4
31 | CC(=O)O[C@@H]1C[C@]2(C(C)C)O[C@@]1(C)[C@@H]1CCC(C)=C1[C@@H]2OC(=O)/C=C/c1ccccc1 | 85.3 | > 100
32 | NC(N)=N/N=C/c1cc(Cl)cc(Cl)c1O | – | > 100
33 | O=C1c2ccn(CCCCNC(CO)(CO)CO)c2C(=O)c2c1c(O)c1ccccc1c2O | 3.33 | 22.6
34 | c1ccc2c3ccn4cc5c(cc4c-3nc2c1)CCCC5 | 3.49 | 13.8
35 | CCN1C(=O)N(CC)C2C1NC(=S)N2/N=C/C=C/c1cccs1 (stereo not given) | 0.508 | > 100
36 | COc1ccc(-c2cc(-c3cccn3C)c(C#N)c(N)n2)cc1OC | > 100 | > 100

These compounds were tested on SN12C renal (assay: NCI-60 cell line screen, 48 h).

Row | SMILES | GI50 [µM] | TGI [µM]
37 | COc1ccc(/C=c2/sc3n(c2=O)C(c2ccc(OC)c(OC)c2)C2=C(N=3)c3cc(F)ccc3OC2)cc1 (stereo not given) | 3.45 | > 54.9
38 | Cc1n(Cc2ccc3ccccc3c2)cc[n+]1Cc1ccc2ccccc2c1 | 1.22 | 10.2
39 | O=C(O)c1ccccc1-c1ccccc1C(=O)Nc1ccc2c(c1)Cc1cc(F)ccc1-2 | – | 45.5
40 | Cc1cc(NC(=O)c2ccc(C)c(Nc3nccc(-c4cccnc4)n3)c2)cc(-n2cnc(C)c2)c1 | 0.005 | 12.8
41 | O=C(O)c1c(-c2nccc3ccccc23)[nH]c(-c2ccccc2)c1S(=O)(=O)O | – | > 100
42 | Cc1[nH]n(-c2cccc(Cl)c2)c(=O)c1/C=C1\C=Nc2ccc(Br)cc21 | 2.88 | 11.9
43 | CC(=O)c1c(CBr)n([O-])c2ccccc2[n+]1=O | 14.1 | 27.3
44 | COc1ccc(C2C(C#N)=C(N)OC3=C2COc2ccc(F)cc23)cc1OC (stereo not given) | 20.8 | 89.4
45 | CCCS(=O)(=O)Nc1ccc(Nc2c3ccccc3nc3ccccc23)c(OC)c1 | – | 3.18
46 | CCN(CC)CCNCC(=O)Oc1ccc(/C=C/C(=O)CC(=O)/C=C/c2ccc(OC(=O)CNCCN(CC)CC)c(OC)c2)cc1OC | 3.32 | 79.6
47 | Cc1ccc(Nc2nc(N)c(C(=O)c3ccc(C#N)cc3)s2)cc1 | 0.617 | > 100
48 | CN(C)Cc1c[nH]c2c1C(=O)c1c(c(O)c3ccccc3c1O)C2=O | 5.62 | 19.1
49 | CC(=O)O[C@@H]1C[C@]2(C(C)C)O[C@@]1(C)[C@@H]1CCC(C)=C1[C@@H]2OC(=O)/C=C/c1ccccc1 | 10.4 | > 100
50 | NC(N)=N/N=C/c1cc(Cl)cc(Cl)c1O | – | > 100
51 | O=C1c2ccn(CCCCNC(CO)(CO)CO)c2C(=O)c2c1c(O)c1ccccc1c2O | 4.39 | 8.83
52 | c1ccc2c3ccn4cc5c(cc4c-3nc2c1)CCCC5 | 3.57 | 16.2
53 | CCN1C(=O)N(CC)C2C1NC(=S)N2/N=C/C=C/c1cccs1 (stereo not given) | 0.62 | > 100
54 | COc1ccc(-c2cc(-c3cccn3C)c(C#N)c(N)n2)cc1OC | 66.9 | > 100

These compounds were tested on ACHN renal (assay: NCI-60 cell line screen, 48 h).

Row | SMILES | GI50 [µM] | TGI [µM]
55 | COc1ccc(/C=c2/sc3n(c2=O)C(c2ccc(OC)c(OC)c2)C2=C(N=3)c3cc(F)ccc3OC2)cc1 (stereo not given) | 19.3 | 65.7
56 | Cc1n(Cc2ccc3ccccc3c2)cc[n+]1Cc1ccc2ccccc2c1 | 10.9 | 23.8
57 | O=C(O)c1ccccc1-c1ccccc1C(=O)Nc1ccc2c(c1)Cc1cc(F)ccc1-2 | – | 64.2
58 | Cc1cc(NC(=O)c2ccc(C)c(Nc3nccc(-c4cccnc4)n3)c2)cc(-n2cnc(C)c2)c1 | 0.0734 | 3.96
59 | O=C(O)c1c(-c2nccc3ccccc23)[nH]c(-c2ccccc2)c1S(=O)(=O)O | – | > 100
60 | Cc1[nH]n(-c2cccc(Cl)c2)c(=O)c1/C=C1\C=Nc2ccc(Br)cc21 | 2.46 | 5.9
61 | CC(=O)c1c(CBr)n([O-])c2ccccc2[n+]1=O | 8.12 | 20.4
62 | COc1ccc(C2C(C#N)=C(N)OC3=C2COc2ccc(F)cc23)cc1OC (stereo not given) | 12.3 | 37.2
63 | CCCS(=O)(=O)Nc1ccc(Nc2c3ccccc3nc3ccccc23)c(OC)c1 | – | 4.02
64 | CCN(CC)CCNCC(=O)Oc1ccc(/C=C/C(=O)CC(=O)/C=C/c2ccc(OC(=O)CNCCN(CC)CC)c(OC)c2)cc1OC | 5.28 | 20.8
65 | Cc1ccc(Nc2nc(N)c(C(=O)c3ccc(C#N)cc3)s2)cc1 | 0.587 | > 80.5
66 | CN(C)Cc1c[nH]c2c1C(=O)c1c(c(O)c3ccccc3c1O)C2=O | 7.08 | 20.1
67 | CC(=O)O[C@@H]1C[C@]2(C(C)C)O[C@@]1(C)[C@@H]1CCC(C)=C1[C@@H]2OC(=O)/C=C/c1ccccc1 | 4.49 | > 100
68 | NC(N)=N/N=C/c1cc(Cl)cc(Cl)c1O | – | > 100
69 | O=C1c2ccn(CCCCNC(CO)(CO)CO)c2C(=O)c2c1c(O)c1ccccc1c2O | 0.56 | 1.89
70 | c1ccc2c3ccn4cc5c(cc4c-3nc2c1)CCCC5 | 4.75 | 17.5
71 | CCN1C(=O)N(CC)C2C1NC(=S)N2/N=C/C=C/c1cccs1 (stereo not given) | 0.804 | > 100
72 | COc1ccc(-c2cc(-c3cccn3C)c(C#N)c(N)n2)cc1OC | > 100 | > 100

These compounds were tested on UO-31 renal (assay: NCI-60 cell line screen, 48 h).

Row | SMILES | GI50 [µM] | TGI [µM]
73 | COc1ccc(/C=c2/sc3n(c2=O)C(c2ccc(OC)c(OC)c2)C2=C(N=3)c3cc(F)ccc3OC2)cc1 (stereo not given) | 27.6 | > 77.7
74 | Cc1n(Cc2ccc3ccccc3c2)cc[n+]1Cc1ccc2ccccc2c1 | 9.26 | 22
75 | O=C(O)c1ccccc1-c1ccccc1C(=O)Nc1ccc2c(c1)Cc1cc(F)ccc1-2 | – | > 100
76 | Cc1cc(NC(=O)c2ccc(C)c(Nc3nccc(-c4cccnc4)n3)c2)cc(-n2cnc(C)c2)c1 | 1.97 | 5.3
77 | O=C(O)c1c(-c2nccc3ccccc23)[nH]c(-c2ccccc2)c1S(=O)(=O)O | – | > 100
78 | Cc1[nH]n(-c2cccc(Cl)c2)c(=O)c1/C=C1\C=Nc2ccc(Br)cc21 | 2.08 | 6.57
79 | CC(=O)c1c(CBr)n([O-])c2ccccc2[n+]1=O | 5.51 | 19
80 | COc1ccc(C2C(C#N)=C(N)OC3=C2COc2ccc(F)cc23)cc1OC (stereo not given) | 43.9 | > 100
81 | CCCS(=O)(=O)Nc1ccc(Nc2c3ccccc3nc3ccccc23)c(OC)c1 | – | 6.47
82 | CCN(CC)CCNCC(=O)Oc1ccc(/C=C/C(=O)CC(=O)/C=C/c2ccc(OC(=O)CNCCN(CC)CC)c(OC)c2)cc1OC | 3.48 | 11
83 | Cc1ccc(Nc2nc(N)c(C(=O)c3ccc(C#N)cc3)s2)cc1 | 0.644 | > 100
84 | CN(C)Cc1c[nH]c2c1C(=O)c1c(c(O)c3ccccc3c1O)C2=O | 8.6 | 29.5
85 | CC(=O)O[C@@H]1C[C@]2(C(C)C)O[C@@]1(C)[C@@H]1CCC(C)=C1[C@@H]2OC(=O)/C=C/c1ccccc1 | 20 | > 100
86 | NC(N)=N/N=C/c1cc(Cl)cc(Cl)c1O | – | > 100
87 | O=C1c2ccn(CCCCNC(CO)(CO)CO)c2C(=O)c2c1c(O)c1ccccc1c2O | 23.7 | > 100
88 | c1ccc2c3ccn4cc5c(cc4c-3nc2c1)CCCC5 | 14.6 | 29.8
89 | CCN1C(=O)N(CC)C2C1NC(=S)N2/N=C/C=C/c1cccs1 (stereo not given) | 0.923 | > 100
90 | COc1ccc(-c2cc(-c3cccn3C)c(C#N)c(N)n2)cc1OC | 98.3 | > 100
